Source: article PMC3914206

Tests used:
Type in all cases: binding
Parameters in all cases: KINOMEscan: ABL1(F317L)-phosphorylated / KINOMEscan: ABL1(H396P)-nonphosphorylated / KINOMEscan: ABL1(H396P)-phosphorylated / KINOMEscan: ABL1(M351T)-phosphorylated / KINOMEscan: ABL1(T315I)-phosphorylated / KINOMEscan: ABL1-nonphosphorylated / KINOMEscan: ABL1-phosphorylated / KINOMEscan: ACVR2A / KINOMEscan: ACVR2B / KINOMEscan: ADCK3 / KINOMEscan: ADCK4 / KINOMEscan: AKT1 / KINOMEscan: AKT3 / KINOMEscan: ALK / KINOMEscan: ARK5 / KINOMEscan: AURKA / KINOMEscan: AURKC / KINOMEscan: BIKE / KINOMEscan: BMPR1A / KINOMEscan: BMPR1B / KINOMEscan: BMX / KINOMEscan: BRK / KINOMEscan: BRSK1 / KINOMEscan: BRSK2 / KINOMEscan: CAMK1 / KINOMEscan: CAMK1D / KINOMEscan: CAMK1G / KINOMEscan: CAMK2A / KINOMEscan: CAMK2B / KINOMEscan: AAK1 / KINOMEscan: CAMK2D / KINOMEscan: CAMK2G / KINOMEscan: ABL1(F317I)-nonphosphorylated / KINOMEscan: ABL1(F317I)-phosphorylated / KINOMEscan: ABL1(F317L)-nonphosphorylated: unit: % Ctrl
panel of 442 kinases [1] = target: T1, panel of 442 kinases (Homo sapiens, UniProt P00519, F317L); details: Compound Concentration 10 µM
T1 construct: purchased KINOMEscan
T1 sequence (P00519 whole entry F317L): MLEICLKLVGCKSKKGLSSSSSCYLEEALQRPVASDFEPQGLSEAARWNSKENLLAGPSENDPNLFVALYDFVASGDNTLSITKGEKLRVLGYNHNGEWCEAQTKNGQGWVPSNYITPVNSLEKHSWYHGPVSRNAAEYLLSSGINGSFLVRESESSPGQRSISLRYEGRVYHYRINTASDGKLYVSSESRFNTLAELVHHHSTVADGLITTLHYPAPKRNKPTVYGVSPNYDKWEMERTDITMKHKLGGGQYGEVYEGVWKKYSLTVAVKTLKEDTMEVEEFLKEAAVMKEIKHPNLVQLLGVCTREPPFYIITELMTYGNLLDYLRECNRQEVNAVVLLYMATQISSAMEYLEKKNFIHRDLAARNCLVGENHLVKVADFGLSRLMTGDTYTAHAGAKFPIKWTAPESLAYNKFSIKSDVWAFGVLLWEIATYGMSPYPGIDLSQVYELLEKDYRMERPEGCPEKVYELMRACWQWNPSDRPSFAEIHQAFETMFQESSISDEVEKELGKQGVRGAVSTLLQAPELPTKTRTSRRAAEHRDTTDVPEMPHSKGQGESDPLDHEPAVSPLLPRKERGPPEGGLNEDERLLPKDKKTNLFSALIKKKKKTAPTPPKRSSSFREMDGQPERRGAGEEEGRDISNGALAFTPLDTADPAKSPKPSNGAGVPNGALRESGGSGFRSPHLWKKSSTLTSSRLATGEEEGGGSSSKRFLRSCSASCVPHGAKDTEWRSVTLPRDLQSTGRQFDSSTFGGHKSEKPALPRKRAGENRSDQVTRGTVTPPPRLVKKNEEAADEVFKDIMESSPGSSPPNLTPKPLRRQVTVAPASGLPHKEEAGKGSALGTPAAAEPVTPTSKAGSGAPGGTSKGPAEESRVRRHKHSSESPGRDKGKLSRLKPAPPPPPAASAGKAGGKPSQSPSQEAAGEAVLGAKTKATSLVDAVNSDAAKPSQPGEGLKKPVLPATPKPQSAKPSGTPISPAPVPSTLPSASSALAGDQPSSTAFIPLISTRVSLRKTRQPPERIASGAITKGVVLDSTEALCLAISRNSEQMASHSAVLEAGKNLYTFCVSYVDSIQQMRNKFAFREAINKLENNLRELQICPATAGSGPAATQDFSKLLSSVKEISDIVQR
Description: (§1) We assessed the selectivity of members of this scaffold using the KINOMEscan methodology across a near comprehensive panel of 442 kinases [[18,27]].

panel of 442 kinases [2] = target: T2, panel of 442 kinases (Homo sapiens, UniProt Q13470); details: kinase TNK1; compound concentration 10 µM
T2 construct: purchased KINOMEscan
T2 sequence (Q13470 1-666): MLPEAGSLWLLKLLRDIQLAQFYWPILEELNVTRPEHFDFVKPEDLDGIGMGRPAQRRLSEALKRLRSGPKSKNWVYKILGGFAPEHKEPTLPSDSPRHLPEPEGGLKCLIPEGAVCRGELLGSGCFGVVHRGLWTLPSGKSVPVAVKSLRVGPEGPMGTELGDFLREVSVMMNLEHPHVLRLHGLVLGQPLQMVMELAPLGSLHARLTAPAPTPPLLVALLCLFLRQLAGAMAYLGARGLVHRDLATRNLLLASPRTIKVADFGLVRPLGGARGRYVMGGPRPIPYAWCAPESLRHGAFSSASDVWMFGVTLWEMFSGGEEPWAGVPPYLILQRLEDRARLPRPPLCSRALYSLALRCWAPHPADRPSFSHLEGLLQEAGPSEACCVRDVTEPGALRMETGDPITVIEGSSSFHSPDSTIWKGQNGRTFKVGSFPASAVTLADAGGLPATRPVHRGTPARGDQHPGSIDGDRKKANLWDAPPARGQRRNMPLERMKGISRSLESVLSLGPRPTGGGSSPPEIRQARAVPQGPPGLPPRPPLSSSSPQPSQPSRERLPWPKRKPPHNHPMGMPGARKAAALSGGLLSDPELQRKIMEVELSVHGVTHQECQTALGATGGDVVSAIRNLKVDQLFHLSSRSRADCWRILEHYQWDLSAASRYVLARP
Description: as §1

panel of 442 kinases [3] = target: T3, panel of 442 kinases (Homo sapiens, UniProt Q9H0K1); details: kinase SIK2; compound concentration 10 µM
T3 construct: purchased KINOMEscan
T3 sequence (Q9H0K1 whole entry): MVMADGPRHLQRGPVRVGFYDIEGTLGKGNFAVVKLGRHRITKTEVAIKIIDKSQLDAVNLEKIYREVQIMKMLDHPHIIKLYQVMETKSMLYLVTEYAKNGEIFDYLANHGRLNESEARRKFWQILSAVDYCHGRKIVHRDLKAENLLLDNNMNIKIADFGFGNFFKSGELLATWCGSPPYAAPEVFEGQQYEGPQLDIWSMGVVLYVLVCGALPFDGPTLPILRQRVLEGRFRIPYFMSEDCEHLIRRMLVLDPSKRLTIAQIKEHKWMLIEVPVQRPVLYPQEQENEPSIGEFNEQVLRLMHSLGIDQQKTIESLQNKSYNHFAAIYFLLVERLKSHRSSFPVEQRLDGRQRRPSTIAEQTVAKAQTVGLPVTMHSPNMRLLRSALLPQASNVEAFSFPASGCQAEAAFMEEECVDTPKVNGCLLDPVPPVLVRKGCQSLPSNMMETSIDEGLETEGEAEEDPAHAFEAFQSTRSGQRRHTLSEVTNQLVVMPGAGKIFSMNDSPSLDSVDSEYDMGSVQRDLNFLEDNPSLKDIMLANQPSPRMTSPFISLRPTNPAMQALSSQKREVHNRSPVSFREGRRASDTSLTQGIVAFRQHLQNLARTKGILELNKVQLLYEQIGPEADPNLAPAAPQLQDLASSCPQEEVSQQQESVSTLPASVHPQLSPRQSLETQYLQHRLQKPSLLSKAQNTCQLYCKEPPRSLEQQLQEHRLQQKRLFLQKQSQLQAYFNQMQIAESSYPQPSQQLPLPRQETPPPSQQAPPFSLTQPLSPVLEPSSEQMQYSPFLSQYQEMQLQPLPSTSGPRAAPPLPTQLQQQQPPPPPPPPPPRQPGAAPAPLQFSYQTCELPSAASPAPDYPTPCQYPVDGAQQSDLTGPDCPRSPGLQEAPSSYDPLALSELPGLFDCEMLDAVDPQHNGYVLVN
Description: as §1

| SMILES | KINOMEscan: ABL1(F317L)-nonphosphorylated (panel of 442 kinases [1]) | KINOMEscan: ABL1(F317L)-phosphorylated (panel of 442 kinases [1]) | % Ctrl, TNK1 (panel of 442 kinases [2]) | % Ctrl, SIK2 (panel of 442 kinases [3]) |
| --- | --- | --- | --- | --- |
| COc1cc(C(=O)N2CCC(N3CCN(C)CC3)CC2)ccc1Nc1ncc2c(n1)N(C1CCCC1)c1ccccc1C(=O)N2C [Compound 25, 11-cyclopentyl-2-((2-methoxy-4-(4-(4-methylpiperazin-1-yl)piperidine-1-carbonyl)phenyl)amino)-5-methyl-5H-benzo[e]pyrimido[5,4-b][1,4]diazepin-6(11H)-one] | 15 | 9.1 | 7.8 % Ctrl | 95 % Ctrl |
| COc1cc(C(=O)N2CCC(N3CCN(C)CC3)CC2)ccc1Nc1ncc2c(n1)N1CCc3cccc(c31)C(=O)N2C [Compound 24] | 23 | 7.8 | 5 % Ctrl | 81 % Ctrl |
| COc1cc(C(=O)N2CCC(N3CCN(C)CC3)CC2)ccc1Nc1ncc2c(n1)N(C)c1ccccc1C(=O)N2C [15 (LRRK2-IN-1)] | 14 | 0.85 | 2.8 % Ctrl | 98 % Ctrl |
| CCOc1cc(C(=O)N2CCC(N3CCN(C)CC3)CC2)ccc1Nc1ncc2c(n1)N(C1CCCC1)c1ccccc1C(=O)N2C [Compound 26] | 71 | 34 | 53 % Ctrl | 100 % Ctrl |
